Holding throughout (assay type): biochemical
The target of one assay is Human PDE4A3 (Homo sapiens (Human), UniProt P27815). Briefly: PDE4A3 Scintillation Proximity Assay (SPA), inhibition of enzyme activity. The note with it: read-out: Human PDE4A FL. The protocol:
(§1) The PDE4A, PDE4B, PDE4C and PDE4D binding affinity for the compounds of the present invention was determined utilizing the following biological assay(s):
(§2) The recombinant Bacmid was isolated and used to transfect insect cells to generate a viral stock. To generate cell paste for purification, insect cells were infected with the virus stock and cells were harvested 72 hours after infection. Insect cell paste was lysed and after centrifugation, the supernatant was batch bound to Ni-NTA agarose (GE Healthcare) and eluted with 250 mM imidazole. This eluate was diluted with FLAG buffer (50 mM Tris HCL pH 7.5, 100 mM NaCl, 5% Glycerol, 1 mM TCEP with protease inhibitors) and batch bound to ant-FLAG M2 agarose (Sigma) overnight at 4° C. The agarose was packed into a column, washed with buffer and eluted with buffer containing elute using 250 ug/ml Flag-peptide. Fractions were analyzed using SDS-PAGE Coomassie blue staining and pooled based on purity. Pooled fractions were chromatographed on a S200 120 ml column (GE Healthcare) in 50 mM Tris HCL pH 7.5, 150 mM NaCl, 10% Glycerol, 2 mM TCEP with protease inhibitors. PDE4A3 fractions were analyzed by SDS-PAGE Coomassie blue staining, pooled based on purity, dialyzed against 50 mM Tris HCL pH 7.5, 100 mM NaCl, 20% Glycerol, 2 mM TCEP, frozen and stored at −80° C.
(§3) The PDE4A3, PDE4B1, PDE4C1 and PDE4D3 assays use the Scintillation Proximity Assay (SPA) technology to measure the inhibition of human recombinant PDE4A1, PDE4B3, PDE4C1, and PDE4D3 enzyme activity by compounds in vitro. The PDE4A1, PDE4B3, PDE4C1, and PDE4D3 assays are run in parallel using identical parameters, except for the concentration of enzyme ([…]). The assays are performed in a 384-well format with 50 uL assay buffer (50 mM TRIS pH7.5; 1.3 mM MgCl2; 0.01% Brij) containing enough PDE4A3, PDE4B1, PDE4C1, and PDE4D to convert ˜20% of substrate (1 μM cAMP consisting of 20 nM 3H-cAMP+[…] cold cAMP) and a range of inhibitors. Reactions are incubated for 30 min at 25° C. The addition of 20 uL of 8 mg/ml yitrium silicate SPA beads (Perkin Elmer) stops the reaction. The plates are sealed (TopSeal, Perkin Elmer) and the beads are allowed to settle for 8 hrs, after which they are read on the Trilux Microbeta overnight.
For orientation: SPA uses beads or plates that emit light when radiolabelled molecules are held near them.

Another assay deals with Human PDE4B1 (Homo sapiens (Human), UniProt Q07343, S133E/S654A/S659A/S661A). Briefly: PDE4B1 Scintillation Proximity Assay (SPA), inhibition of enzyme activity. To be noted: read-out: Human PDE4B FL. A digest of the protocol: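 His-tagged enzyme from baculovirus-infected insect cells, Ni-NTA purified. SPA with 1 μM cAMP (20 nM 3H-cAMP tracer) in 50 mM Tris pH 7.5, 1.3 mM MgCl2, 0.01% Brij, […] PDE4B enzyme for ~20% substrate conversion; 30 min at 25 °C, stopped with yttrium silicate beads, read after 8 h settling.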
Chain of Human PDE4B1 (Q07343 122-736 S133E/S654A/S659A/S661A): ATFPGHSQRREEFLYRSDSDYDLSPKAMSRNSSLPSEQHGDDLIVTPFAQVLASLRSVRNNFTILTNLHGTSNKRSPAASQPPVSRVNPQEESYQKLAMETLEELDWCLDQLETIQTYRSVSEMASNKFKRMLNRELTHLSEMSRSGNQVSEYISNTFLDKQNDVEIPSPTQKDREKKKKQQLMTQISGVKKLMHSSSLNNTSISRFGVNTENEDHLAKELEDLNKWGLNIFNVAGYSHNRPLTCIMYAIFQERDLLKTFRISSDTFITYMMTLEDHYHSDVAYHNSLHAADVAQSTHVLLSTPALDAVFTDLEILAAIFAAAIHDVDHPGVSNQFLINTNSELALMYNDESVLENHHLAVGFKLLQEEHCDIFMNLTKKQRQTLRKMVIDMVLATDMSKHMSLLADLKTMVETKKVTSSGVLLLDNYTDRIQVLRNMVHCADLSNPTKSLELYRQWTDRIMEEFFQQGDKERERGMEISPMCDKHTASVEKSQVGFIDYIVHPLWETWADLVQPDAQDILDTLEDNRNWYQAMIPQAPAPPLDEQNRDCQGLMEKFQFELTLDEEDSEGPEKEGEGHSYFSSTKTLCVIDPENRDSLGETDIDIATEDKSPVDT

The next assay deals with Human PDE4C1 (Homo sapiens (Human), UniProt Q08493). Briefly: PDE4C1 Scintillation Proximity Assay (SPA), inhibition of enzyme activity. The note with it: read-out: Human PDE4C FL. The method, then: as §1
Chain of Human PDE4C1 (Q08493 2-712): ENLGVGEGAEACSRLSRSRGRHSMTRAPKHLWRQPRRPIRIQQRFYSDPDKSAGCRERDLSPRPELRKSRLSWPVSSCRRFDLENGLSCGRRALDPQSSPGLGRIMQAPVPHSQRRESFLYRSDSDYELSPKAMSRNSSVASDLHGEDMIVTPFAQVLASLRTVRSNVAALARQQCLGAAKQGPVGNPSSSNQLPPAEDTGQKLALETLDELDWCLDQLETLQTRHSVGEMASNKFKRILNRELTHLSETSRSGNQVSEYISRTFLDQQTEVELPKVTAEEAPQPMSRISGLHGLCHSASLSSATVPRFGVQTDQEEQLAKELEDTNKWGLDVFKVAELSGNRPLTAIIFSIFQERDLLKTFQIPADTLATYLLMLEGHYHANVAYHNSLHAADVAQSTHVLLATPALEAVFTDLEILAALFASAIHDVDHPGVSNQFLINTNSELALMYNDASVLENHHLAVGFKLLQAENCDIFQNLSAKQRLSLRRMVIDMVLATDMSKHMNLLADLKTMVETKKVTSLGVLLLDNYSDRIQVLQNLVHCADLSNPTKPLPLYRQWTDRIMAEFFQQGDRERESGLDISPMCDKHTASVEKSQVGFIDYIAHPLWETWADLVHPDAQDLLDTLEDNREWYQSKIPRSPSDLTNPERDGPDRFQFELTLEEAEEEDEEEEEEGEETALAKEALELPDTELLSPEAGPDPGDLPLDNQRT
as §2, with “PDE4C1” for “PDE4A3”
as §3

For another assay, the target named is human PDE4D3 (Homo sapiens (Human), UniProt Q08499). Nature of the assay: PDE4D3 Scintillation Proximity Assay (SPA), inhibition of enzyme activity. The note with it: read-out: Human PDE4D FL. A digest of the protocol: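 His-tagged human PDE4D3 (aa 50–672), expressed in insect cells, hydrolysed 1 μM cAMP (3H tracer plus cold) for 30 min at 25° C in 50 mM Tris pH 7.5, 1.3 mM MgCl2 and 0.01% Brij. Enzyme level was set for ~20% conversion. Product was read by yttrium silicate SPA beads after 8 h settling.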
Chain of human PDE4D3 (Q08499 186-808): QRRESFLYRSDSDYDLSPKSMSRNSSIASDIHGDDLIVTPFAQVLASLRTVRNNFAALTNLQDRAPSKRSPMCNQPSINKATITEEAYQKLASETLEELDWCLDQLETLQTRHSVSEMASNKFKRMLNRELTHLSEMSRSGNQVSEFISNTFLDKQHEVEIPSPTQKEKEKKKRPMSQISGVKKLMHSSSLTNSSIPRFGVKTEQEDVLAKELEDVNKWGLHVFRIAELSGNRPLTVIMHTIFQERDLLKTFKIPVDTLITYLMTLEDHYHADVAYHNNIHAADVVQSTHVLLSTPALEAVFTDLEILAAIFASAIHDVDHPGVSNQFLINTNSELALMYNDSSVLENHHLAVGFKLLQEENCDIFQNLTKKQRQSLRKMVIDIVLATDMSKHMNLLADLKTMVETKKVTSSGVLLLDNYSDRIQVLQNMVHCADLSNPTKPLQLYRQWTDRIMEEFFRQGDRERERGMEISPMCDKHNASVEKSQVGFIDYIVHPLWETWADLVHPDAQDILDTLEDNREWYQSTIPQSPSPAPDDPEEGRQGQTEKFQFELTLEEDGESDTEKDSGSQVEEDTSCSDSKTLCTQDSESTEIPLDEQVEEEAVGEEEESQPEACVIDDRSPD

Setting [1] is: Table 9, geometric mean of 2-9 determinations unless otherwise indicated.
Setting [2] is: Table 10, geometric mean of 2-9 determinations unless otherwise indicated.

Here are results for 16 compounds from patent publication US11472805B2, “Tricyclic compounds and their use as phosphodiesterase inhibitors” (Pfizer Inc., priority 2015, dated 2022).

Where two headings read alike, the source gives them in different places.

Chain of Human PDE4A3 (P27815 other isoform, or with tags, fused parts or gaps): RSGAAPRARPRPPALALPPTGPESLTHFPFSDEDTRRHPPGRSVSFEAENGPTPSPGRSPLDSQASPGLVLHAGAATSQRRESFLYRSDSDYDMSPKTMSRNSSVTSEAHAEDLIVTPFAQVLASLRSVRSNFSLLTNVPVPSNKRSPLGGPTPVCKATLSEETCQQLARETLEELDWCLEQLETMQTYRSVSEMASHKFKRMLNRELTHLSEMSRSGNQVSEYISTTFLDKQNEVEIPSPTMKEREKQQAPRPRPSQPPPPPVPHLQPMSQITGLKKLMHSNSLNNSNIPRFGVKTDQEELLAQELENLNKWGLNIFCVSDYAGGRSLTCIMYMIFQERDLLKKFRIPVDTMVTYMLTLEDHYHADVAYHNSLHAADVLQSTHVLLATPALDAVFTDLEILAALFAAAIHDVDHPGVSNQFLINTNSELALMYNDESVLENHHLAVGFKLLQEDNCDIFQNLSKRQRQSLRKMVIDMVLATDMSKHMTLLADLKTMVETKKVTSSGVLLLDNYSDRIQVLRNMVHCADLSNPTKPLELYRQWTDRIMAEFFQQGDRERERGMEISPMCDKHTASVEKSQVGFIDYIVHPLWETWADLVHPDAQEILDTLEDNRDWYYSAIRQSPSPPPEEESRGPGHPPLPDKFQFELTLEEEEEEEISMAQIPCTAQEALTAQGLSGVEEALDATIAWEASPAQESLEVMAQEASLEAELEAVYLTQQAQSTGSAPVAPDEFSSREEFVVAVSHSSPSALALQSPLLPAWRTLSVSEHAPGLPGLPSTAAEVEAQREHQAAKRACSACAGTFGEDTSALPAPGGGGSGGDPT

`O=C1c2c(-c3ccc(Cl)c(F)c3)c3c(n2CCN1C1CC1)CCCO3` [Example 76, 10-(4-Chloro-3-fluorophenyl)-8-cyclopropyl-3,4,7,8-tetrahydro-2H-pyrano[2′,3′:4,5]pyrrolo[1,2-a]pyrazin-9(6H)-one]: the IC50 at Human PDE4A3 (setting [1]) is below 0.31 nM; at Human PDE4B1 (setting [1]), below 0.55 nM; at Human PDE4C1 (setting [1]), 2 nM; on human PDE4D3 (setting [1]), 21.6 nM.
As to `O=C1c2c(-c3ccc(Cl)c(F)c3)c3ncccc3n2CCN1C1CC1` [Example 32, 10-(4-Chloro-3-fluorophenyl)-8-cyclopropyl-7,8-dihydropyrido[2′,3′:4,5]pyrrolo[1,2-a]pyrazin-9(6H)-one], the IC50 is below 0.45 nM on Human PDE4A3 (setting [1]), below 0.7 nM at Human PDE4B1 (setting [1]), 1.44 nM at Human PDE4C1 (setting [1]) and 9.07 nM on human PDE4D3 (setting [1]).
The like results for `N#Cc1ccc(-c2c3n(c4cccnc24)CCN(C2CC2)C3=O)cc1F` [Example 4, 4-(8-Cyclopropyl-9-oxo-6,7,8,9-tetrahydropyrido[2′,3′:4,5]pyrrolo[1,2-a]pyrazin-10-yl)-2-fluorobenzonitrile] were, in that order, 4.66 nM, below 0.81 nM, 17 nM and 36.3 nM.
Regarding `Cc1ccc(C#N)cc1-c1c2n(c3cccnc13)CCN(C1CC1)C2=O` [Example 60, 3-(8-Cyclopropyl-9-oxo-6,7,8,9-tetrahydropyrido[2′,3′:4,5]pyrrolo[1,2-a]pyrazin-10-yl)-4-methylbenzonitrile], the IC50 was 11.8 nM at Human PDE4A3 (setting [1]), 11.2 nM on Human PDE4B1 (setting [1]), 99 nM on Human PDE4C1 (setting [1]) and 397 nM on human PDE4D3 (setting [1]).
As to `C[C@H]1Cn2c(c(-c3ccc(Cl)cc3)c3ncccc32)C(=O)N1C1CC1` [Example 11, (7S)-10-(4-Chlorophenyl)-8-cyclopropyl-7-methyl-7,8-dihydropyrido[2′,3′: 4,5]pyrrolo[1,2-a]pyrazin-9(6H)-one], the IC50 on Human PDE4A3 (setting [1]) was below 0.3 nM; at Human PDE4B1 (setting [1]) it was below 0.52 nM; on Human PDE4C1 (setting [1]), below 0.57 nM; on human PDE4D3 (setting [1]), 28.7 nM.
Regarding `CCCc1ccnc(N2CCn3c(c(-c4ccc(Cl)cc4)c4ncccc43)C2=O)n1` [Example 97, 10-(4-Chlorophenyl)-8-(4-propylpyrimidin-2-yl)-7,8-dihydropyrido[2′,3′:4,5]pyrrolo[1,2-a]pyrazin-9(6H)-one], the IC50 on Human PDE4A3 (setting [2]) was found to be 287 nM; on Human PDE4B1 (setting [2]), 1040 nM; at Human PDE4C1 (setting [2]) it was 526 nM; at human PDE4D3 (setting [2]), 1130 nM.
Take `Cc1nccc(-c2c3n(c4cccnc24)CCN(C2CC2)C3=O)n1` [Example 81, 8-Cyclopropyl-10-(2-methylpyrimidin-4-yl)-7,8-dihydropyrido [2′,3′:4,5] pyrrolo[1,2-a]pyrazin-9(6H)-one]: the IC50 on Human PDE4A3 (setting [2]) was above 30000 nM; at Human PDE4B1 (setting [2]), above 30000 nM; at Human PDE4C1 (setting [2]), 29700 nM; on human PDE4D3 (setting [2]) it was above 30000 nM.
For `O=C1c2c(-c3ccc(Cl)cc3)c3ncccc3n2CCN1C1CC1` [Example 2, 10-(4-Chlorophenyl)-8-cyclopropyl-7,8-dihydropyrido[2′,3′:4,5]pyrrolo[1,2-a]pyrazin-9(6H)-one], the IC50 on Human PDE4A3 (setting [1]) was below 0.99 nM; on Human PDE4B1 (setting [1]), below 0.42 nM; on Human PDE4C1 (setting [1]) it was 4 nM; on human PDE4D3 (setting [1]), 75.3 nM.
Take `O=C1c2c(-c3ccc(Cl)cc3)c3ccccc3n2CCN1C1CC1` [Example 12, 10-(4-Chlorophenyl)-2-cyclopropyl-3,4-dihydropyrazino[1,2-a]indol-1(2H)-one]: the IC50 came out at 12 nM at Human PDE4A3 (setting [1]), 19.2 nM at Human PDE4B1 (setting [1]), 23.5 nM at Human PDE4C1 (setting [1]) and 3090 nM at human PDE4D3 (setting [1]).
With `O=C1c2c(-c3ccc(F)cc3)c3ncccc3n2CCN1C1CC1` [Example 23, 8-Cyclopropyl-10-(4-fluorophenyl)-7,8-dihydropyrido[2′,3′:4,5]pyrrolo[1,2-a]pyrazin-9(6H)-one], the IC50 at Human PDE4A3 (setting [1]) is 13 nM; at Human PDE4B1 (setting [1]), 3.13 nM; on Human PDE4C1 (setting [1]) it was 82 nM; on human PDE4D3 (setting [1]), 321 nM.
Consider `O=C1c2c(-c3ccc4ncnn4c3)c3ncccc3n2CCN1C1CC1` [Example 58, 8-Cyclopropyl-10-([1,2,4]triazolo[1,5-a]pyridin-6-yl)-7,8-dihydropyrido[2′,3′:4,5]pyrrolo[1,2-a]pyrazin-9(6H)-one], for which the IC50 at Human PDE4A3 (setting [1]) was found to be 12.6 nM; on Human PDE4B1 (setting [1]), 24 nM; on Human PDE4C1 (setting [1]) it was 62.6 nM; at human PDE4D3 (setting [1]), 624 nM.
Take `Cc1csc(-c2c3n(c4cccnc24)CCN(C2CC2)C3=O)n1` [Example 82, 8-Cyclopropyl-10-(4-methylthiazol-2-yl)-7,8-dihydropyrido[2′,3′:4,5]pyrrolo[1,2-a]pyrazin-9(6H)-one]: the IC50 at Human PDE4A3 (setting [2]) is 11100 nM; on Human PDE4B1 (setting [2]), 18500 nM; on Human PDE4C1 (setting [2]), 4820 nM; on human PDE4D3 (setting [2]), above 30000 nM.
For the compound `O=C1c2c(-c3ccc(F)cc3F)c3ncccc3n2CCN1C1CC1` [Example 38, 8-Cyclopropyl-10-(2,4-difluorophenyl)-7,8-dihydropyrido[2′,3′:4,5]pyrrolo[1,2-a]pyrazin-9(6H)-one], the IC50 at Human PDE4A3 (setting [1]) worked out at 5.59 nM; at Human PDE4B1 (setting [1]) it was 10.9 nM; at Human PDE4C1 (setting [1]), 21 nM; on human PDE4D3 (setting [1]), 569 nM.
For the compound `Cc1nc(-c2c3n(c4cccnc24)CCN(C2CC2)C3=O)cs1` [Example 88, 8-Cyclopropyl-10-(2-methylthiazol-4-yl)-7,8-dihydropyrido[2′,3′:4,5]pyrrolo[1,2-a]pyrazin-9(6H)-one], the IC50 on Human PDE4A3 (setting [2]) was 8080 nM; at Human PDE4B1 (setting [2]) it was 11000 nM; at Human PDE4C1 (setting [2]) it was 8420 nM; at human PDE4D3 (setting [2]), 16100 nM.
As to `Cc1ccc(-c2c3ncccc3n3ccn(C4CC4)c(=O)c23)cc1` [Example 13, 8-Cyclopropyl-10-(4-methylphenyl)pyrido[2′,3′:4,5]pyrrolo[1,2-a]pyrazin-9(8H)-one], the IC50 was 1.86 nM on Human PDE4A3 (setting [1]), 2.7 nM at Human PDE4B1 (setting [1]), 6.59 nM at Human PDE4C1 (setting [1]) and 182 nM on human PDE4D3 (setting [1]).
In the case of `O=C1c2c(-c3ccc(Cl)cc3)c3nccnc3n2CCN1C1CC1` [Example 18, 10-(4-Chlorophenyl)-8-cyclopropyl-7,8-dihydropyrrolo[1,2-a:4,5-b′]dipyrazin-9(6H)-one], the IC50 at Human PDE4A3 (setting [1]) is 4.12 nM; at Human PDE4B1 (setting [1]), 10.2 nM; on Human PDE4C1 (setting [1]) it was 24.4 nM; at human PDE4D3 (setting [1]) it was 345 nM.
